According to article PMC11167338, “Exploring the impact of trifluoromethyl (–CF3) functional group on the anti-cancer activity of isoxazole-based molecules: design, synthesis, biological evaluation and molecular docking analysis” (RSC Advances, 2024):

What was measured:
MCF-7 = assay: MTT anti-proliferative assay on MCF-7; type: cell-based, human; settings: for IC50: MTT, 48 hours treatment, mean ± SD (n = 2)
Method: (§1) All synthesized molecules were tested for their anticancer activity using the MTT assay protocol against the murine mammary carcinoma cell line (4T1), the human breast cancer (MCF-7), and the prostatic small cell carcinoma (PC-3). These compounds were then assessed for their IC50 determination at various concentrations. According to this finding, all synthesized compounds have the ability to inhibit the proliferation of a variety of cancer cell lines. […] It is more biased for MCF-7 cells over other cancer cells tested. Further, we contemplated conducting additional research to assess their anti-cancer effectiveness and mechanism (Fig. 3).
(§2) The mouse triple-negative breast cancer cell line (4T1), a human luminal A breast cancer cell line (MCF-7), a human prostate cancer cell line (PC-3), and a normal human embryonic kidney cell line (HEK-293) were procured from the National Center for Cell Science (NCCS, Pune, India). Dulbecco's Modified Eagle Medium (DMEM) (Himedia Laboratories Pvt Ltd, Mumbai, India) was used to cultivate MCF-7, 4T1, PC-3, and HEK-293 cells. All the mentioned cell lines were cultured in Dulbecco's Modified Eagle Medium (DMEM) supplemented with 10% heat-inactivated fetal bovine serum (Himedia Laboratories Pvt Ltd, Mumbai, India) and 1% antibiotic (Pen strep: A001), Himedia Laboratories Pvt Ltd, Mumbai, India. Cells were grown in a humidified environment with 5% CO2 at 37 °C. The experiment was performed using the yellow dye MTT [3-(4,5-dimethylthiazol-2-yl)-2, 5-diphenyltetrazolium bromide].
(§3) The MTT assay protocol was used to determine the IC50 values of the final compounds against different types of cancer cell lines and their selectivity over normal human cell lines. Dilutions of various concentrations were made from the compounds' DMSO stock solutions in the appropriate media. With a control solution of less than 1% DMSO in the appropriate media, dilutions from 200 μM to 0.781 μM concentrations were prepared using the serial dilution method. Cells were subcultured in their respective complete media according to the ATCC protocol before being seeded on a sterile 96-well plate with around 100 μL per well and a cell density of about 1 × 10^4 cells per well and incubated overnight. The medium was aspirated the following day, and adherent cells were treated with the respective concentrations 200 μM to 0.781 μM. The cells were then cultured for 48 hours in presence of compounds in the growth medium. The medium was aspirated post-treatment, and 100 μL of a 5 mg mL^−1 MTT solution in phenol red-free media was added. This mixture was then incubated for around 3 hours to check for the production of formazan crystals. The MTT solution was withdrawn, and 150 μL of DMSO was added to the wells to dissolve the generated crystals. The absorbance was measured at 570 nm and 650 nm. The percent cell viability was calculated for the IC50 values using GraphPad Prism™ version 8.0.1, and the results were shown as a dose–response curve.

4T1 = assay: MTT anti-proliferative assay on 4T1; type: cell-based, mouse; settings: for IC50: Mus musculus, 4T1, MTT, 48 hours treatment, mean ± SD (n = 2)
Method: as §1, §2, §3

PC-3 = assay: MTT anti-proliferative assay on PC-3; type: cell-based, human; settings: for IC50: Homo sapiens, PC-3, MTT, 48 hours treatment, mean ± SD (n = 2)
Method: as §1, §2, §3

HEK-293 = assay: MTT cytotoxicity on normal HEK-293 cells; type: cell-based; settings: Homo sapiens, HEK293, normal cell line, 48 hours treatment, mean ± SD (n = 2)
Source text: We also investigated their in vitro cytotoxicity against a normal human embryonic kidney (HEK-293) cell line to determine their IC50.
as §2, §3

MCF-7 cells [1] = assay: Annexin-V/FITC-PI apoptosis assay (flow cytometry); type: cell-based, human; settings: MCF-7, 48 h, at in vitro IC50
Method: Several studies have reported that anticancer drug molecules employ their cytotoxicity induced cell death via apoptotic pathways. […] These findings imply that the programmed cell death mechanism generated by the lead compound 2g causes considerable apoptosis in cancer cells.
In MCF-7 cells, an apoptosis assay was done using a TACs/Annexin V kit from Biolegend, USA. MCF-7 cells were seeded with a density of 5.0 × 10^4 cells per well in a flat-bottomed 12-well plate and allowed overnight for attachment. Following media aspiration, 48 hours of treatment with compound 2g and BG-45 at their in vitro IC50 values in MCF-7 cells were performed in triplicate. The cells were then trypsinized after being rinsed twice with ice-cold PBS. The trypsinized cells were then collected, centrifuged, and the obtained cell pellet was washed with ice-cold PBS before being resuspended in 100 μL of freshly prepared Annexin V reagent, which included 10 μL of 10× binding buffer, 1 μL of FITC, 10 μL of PI, and made up to 100 μL with double distilled water. Following a 30 minutes dark incubation period, these samples were diluted to 500 μL using 400 μL of 1× binding buffer. Following incubation, the samples were examined using flow cytometry (BDAria™ III, BD biosciences).

MCF-7 cells [2] = assay: Cell cycle analysis (PI, flow cytometry); type: cell-based, human; settings: MCF-7, 48 hours, at IC50 concentration
Method: In addition to the apoptosis assay, the cell cycle progression of MCF-7 cells was also investigated using the compound 2g. The cell population at different cell cycle phases was assessed using flow cytometry. […] These findings highlight that the lead compound 2g specifically impacts cell cycle regulation in the early phase compared to control and standard compound-treated cells (Fig. 6).
Flow cytometry was used to study the cell cycle of compound 2g and BG-45 using the BDAria™ III, a BD biosciences equipment, and the data was processed using Flow Jo software. For this objective, 5.0 × 10^4 MCF-7 cells were seeded onto 12 well plates and incubated overnight. The media was aspirated the other day, and the treatment was continued for another 48 hours after adding the required concentrations of compound 2g and BG-45 to the aspirated media. Following the treatment, the sample wells were rinsed with ice-cold PBS, trypsinized, and collected as a cell pellet. After two ice-cold PBS washes, the pellet was fixed with a dropwise addition of 70% ice-cold ethanol, which was then gently vortexed to create a single-cell suspension. Overnight, the fixed cells were stored at −20 °C. The samples were then centrifuged, and the resulting cell pellet was resuspended in 500 μL of the staining solution made from 20% w/v RNase, 2% w/v PI, and roughly 0.1% v/v Triton X 100 solution in PBS. The dissolved samples were examined using flow cytometry in the BDAria™ III, BD Biosciences, after being incubated for 30 min at room temperature in the dark.

MCF-7 cells [3] = assay: Intracellular ROS generation (DCFH-DA); type: cell-based, human
Source text: This can result from the increased metabolic demands of rapidly dividing cancer cells and mitochondrial dysfunction. Elevated ROS levels can also damage DNA, contributing to genomic instability and the development of genetic mutations that drive cancer progression. Chemotherapy drugs, for example, can generate ROS as a byproduct of their mechanism of action, causing increase DNA damage and cell death in cancer cells. As a result, we investigated whether the compound 2g could cause ROS production within cancer cells.
The generation of reactive oxygen species in MCF-7 cells was investigated using the 2-7-dichlorodihydroflourescein diacetate (DCFH-DA) assay. The non-fluorescent DCFH-DA enters the cells, where cellular esterase cleaves off the acetyl groups to produce DCFH. ROS transform the molecule from DCFH to DCF, which produces green light. […] Following incubation, old medium was removed, and cells were treated with 10 μM DCFH-DA (S0033-Beyotime) in accordance with the recommended technique for 10 min at 37 °C in complete darkness. The intensity of fluorescence was then measured with a Laser Scanning Confocal Microscope (LSCM) DMI8 (Leica Microsystems, Germany) at 63× magnification at 485 nm and 535 nm for excitation and emission wavelengths. […] In the meantime, the increase in fluorescence intensity was determined in comparison to the control. Image J was used to calculate the relative fluorescence intensity (%). One-way ANOVA was used to determine significance, and the graph was created in GraphPad Prism™ version 8.0.1.

MCF-7 cells [4] = assay: Nuclear staining assay (DAPI and AO); type: cell-based, human; settings: MCF-7, IC50, 48 hours, compared to control and BG-45
Method: A nuclear staining assay was done using DAPI and AO as staining dyes to evaluate the phenomena of apoptosis in cancer cells under a laser scanning confocal microscope (LSCM). […] The fluorescence pattern in AO staining changed from green (normal cellular DNA) to orange (nicked cellular DNA).
To measure the degree of cancer cell disintegration, a nuclear staining experiment was performed in MCF-7 cells using the lead compound 2g and the reference compound BG-45. […] The 12-well plate was incubated for 48 hours after treatment. The cells were fixed with 4% paraformaldehyde and then stained with DAPI and acridine orange. The degree of nuclear staining was examined using a Laser Scanning Confocal Microscope (LSCM) DMI8 (Leica Microsystems, Germany) at 63× magnification. Image J was used to calculate the percentage apoptosis. One-way ANOVA was used to determine significance, and the graph was plotted in GraphPad Prism™ version 8.0.1.

SMILES	IC50 (MCF-7; Homo sapiens, MCF7, 48 h)	IC50 (MCF-7)	IC50 (4T1)	IC50 (PC-3)	IC50 (HEK-293)	times more active than non-trifluoromethylated analogue 14 (MCF-7; MCF-7 IC50 compared)	selectivity for MCF-7 cells over HEK-293 (MCF-7; ratio of IC50 values)	selectivity for other cancer cell lines over HEK-293 (4T1; first value, fits 4T1 by ratio of Table 1 IC50)	selectivity for other cancer cell lines over HEK-293 (PC-3; second value, fits PC-3 by ratio of Table 1 IC50)	total apoptotic percentage (Q2 and Q4) (MCF-7 cells [1])	cell population in G0/G1 phase (MCF-7 cells [2])	cell population in G2/M phase (MCF-7 cells [2])	cell population in S phase (MCF-7 cells [2])	Fluorescence intensity (DCFH-DA, ImageJ) (MCF-7 cells [3]; MCF-7, 48 h, IC50 dose)	relative fluorescence intensity compared to the control (MCF-7 cells [3]; MCF-7, IC50 dose)	nuclear morphology by DAPI and AO staining (MCF-7 cells [4])
FC(F)(F)c1c(-c2ccco2)noc1-c1cccs1 [Compound 2f]	5.32 µM	5.32 ± 0.19 µM	18.12 ± 0.15 µM	10.3 ± 0.15 µM	86.98 ± 0.23 µM											
COc1ccc(-c2noc(-c3cccs3)c2C(F)(F)F)cc1OC [Compound 2g, 3-(3,4-dimethoxyphenyl)-5-(thiophen-2-yl)-4-(trifluoromethyl)isoxazole]	2.64 µM	2.63 ± 0.15 µM	8.75 ± 0.09 µM	7.16 ± 0.18 µM	81.2 ± 0.17 µM	~8 times	30.8 fold	9.2 fold	11.3 fold	55.3 ± 0.9%	68.6%	31.5%	1.11%	31.63	considerable increase	notable variation in cell shape and morphology
FC(F)(F)c1c(-c2cccs2)noc1/C=C/c1cccs1 [Compound 4, (E)-3-(thiophen-2-yl)-5-(2-(thiophen-2-yl)vinyl)-4-(trifluoromethyl)isoxazole]	13.7 µM	13.71 ± 0.13 µM	44.36 ± 0.2 µM	17.99 ± 0.13 µM	122 ± 0.16 µM											
FC(F)(F)c1c(-c2cccs2)noc1-c1c[nH]cc1-c1cccs1 [Compound 5, 3-(thiophen-2-yl)-5-(4-(thiophen-2-yl)-1H-pyrrol-3-yl)-4-(trifluoromethyl)isoxazole]	3.09 µM	3.09 ± 0.11 µM	14.96 ± 0.13 µM	9.56 ± 0.18 µM	84.86 ± 0.19 µM											

The next lines start with results.

IC50 (MCF-7; Homo sapiens, MCF7, 48 h)	IC50 (MCF-7)	IC50 (4T1)	IC50 (PC-3)	SMILES	IC50 (HEK-293)	times more active than non-trifluoromethylated analogue 14 (MCF-7; MCF-7 IC50 compared)	selectivity for MCF-7 cells over HEK-293 (MCF-7; ratio of IC50 values)	selectivity for other cancer cell lines over HEK-293 (4T1; first value, fits 4T1 by ratio of Table 1 IC50)	selectivity for other cancer cell lines over HEK-293 (PC-3; second value, fits PC-3 by ratio of Table 1 IC50)	total apoptotic percentage (Q2 and Q4) (MCF-7 cells [1])	cell population in G0/G1 phase (MCF-7 cells [2])	cell population in G2/M phase (MCF-7 cells [2])	cell population in S phase (MCF-7 cells [2])	Fluorescence intensity (DCFH-DA, ImageJ) (MCF-7 cells [3]; MCF-7, 48 h, IC50 dose)	relative fluorescence intensity compared to the control (MCF-7 cells [3]; MCF-7, IC50 dose)	nuclear morphology by DAPI and AO staining (MCF-7 cells [4])
13 µM	13.03 ± 0.13 µM	41.58 ± 0.21 µM	17.42 ± 0.17 µM	c1ccc(-c2cc(-c3ccccc3)on2)cc1 [Compound 7, 3,5-diphenylisoxazole]	118.7 ± 0.21 µM											
10 µM	9.99 ± 0.1 µM	36.24 ± 0.2 µM	14.5 ± 0.17 µM	c1ccc(-c2cc(-c3cccs3)on2)cc1 [Compound 9, 3-phenyl-5-(thiophen-2-yl)isoxazole]	109.3 ± 0.19 µM											
19.72 ± 0.16 µM		48.39 ± 0.19 µM	30.21 ± 0.22 µM	COc1ccc(-c2cc(-c3cccs3)on2)cc1OC [Compound 14, 3-(3,4-dimethoxyphenyl)-5-(thiophen-2-yl)isoxazole, reference compound]	131.5 ± 0.13 µM											
